Measurements reported in publication PMC5356016, “Suppression of Sin3A activity promotes differentiation of pluripotent cells into functional neurons” (Scientific Reports, 2017).
Where no end group is shown, it is not given here.

B1: mouse Sin3A PAH1 (residues 114-195) (domain or fragment, UniProt Q60520 114-195, looked up)
chain: GQQQFQRLKVEDALSYLDQVKLQFGSQPQVYNDFLDIMKEFKSQSIDTPGVISRVSQLFKGHPDLIMGFNTFLPPGYKIEVQ
notes: Sin3A, mouse, paired amphipathic helix 1 (PAH1) domain, residues 114-195
B7: GST-REST, mouse REST (residues 31-120) (domain or fragment, UniProt Q8VIG1 31-120, looked up)
chain: YDLHELSKAELAAPQLIMLANVALTGEASGSCCDYLVGEERQMAELMPVGDNHFSESEGEGLEESADLKGLENMELGSLELSAVEPQPVF
notes: RE1 silencing transcription factor (REST), mouse, residues 31-120

Columns and labels:
[1] = system: PDZ domain of Dishevelled (Dvl/Dsh) protein; conditions: upstream inhibitor for the Wnt/β-catenin pathway; ref [28]; cited from earlier work
[2] = system: Wnt/β-catenin pathway; assay: Signaling pathway study, Wnt/β-catenin pathway inhibitors in Sin3A knockdown P19 cells; assay type: cell-based, mouse; conditions: for transcriptional level of NeuroD1 (in words): RT-PCR; for neurogenesis inducing capability of Sin3A-silenced cells (in words) / translational level of β-catenin (in words): versus untreated cells; for neurogenesis inducing capability of Sin3A-silenced cells (in words): at least three experiments; for translational level of β-catenin (in words): western blot
[3] = system: P19 cells; assay: Astrocyte differentiation of P19 cells (GFAP and S100); assay type: cell-based, mouse; conditions: 1 μM retinoic acid, 10 days, untransfected P19 cells; Tuj1, GFAP, S100 immunocytochemistry
[4] = system: complex between Tcf4 and β-catenin; conditions: downstream inhibitor for the Wnt/β-catenin pathway; no reference given; cited from earlier work
[5] = system: smoothened (SMO); design: method as in PMID 12679522; conditions: Shh signaling pathway; ref [30]; cited from earlier work
[6] = system: Shh signaling pathway; assay: Signaling pathway study, Shh pathway inhibitor in Sin3A knockdown P19 cells; assay type: cell-based, mouse; conditions: 30 μM Cur61414, 10 days; Tuj1 immunocytochemistry, western blot, RT-PCR; at least three experiments
Method: Figure 2 Signaling pathways associated with Sin3A knockdown-induced neurogenesis in P19 cells. (a–c) Sin3A knockdown P19 cells were incubated for 10 days in the absence and presence of an inhibitor for the Wnt pathway, 30 μM NSC668036 or 25 nM PFK118-310. (a) The cells were immunostained with Tuj1 antibody ([…]). (b) Expression levels of β-catenin and Tuj1 were examined by using western blot analysis. (c) Transcriptional levels of Tuj1 and NeuroD1 were examined by using RT-PCR. (d-e) Sin3A knockdown P19 cells were incubated for 10 days in the absence and presence of an inhibitor for the Shh pathway, 30 μM Cur61414. (d) The cells were immunostained with Tuj1 antibody ([…]). (e) The expression level of Tuj1 was examined by using western blot and (f) RT-PCR analyses. All experiments were conducted at least three times.
SMART™ BCA Protein Assay Kit (iNtRON Biot echnology). […]
Sin3A and Sin3B knockdown P19 cells were incubated for 10 days without any treatment. mRNA samples were isolated using an mRNA extraction kit (iNtRON Biotechnology, Inc.) according to the manufacture’s protocol. Samples were analyzed in duplicates on the GeneChip® Mouse Gene 2.0 ST Array (Affymetrix). […]

[7] = system: mouse REST (residues 31–120); assay: ELISA binding of Sin3A PAH1 and PAH2 domains to REST; conditions: wells coated with PAH1 or PAH2 (1 μg/mL), GST-REST 0-2 μg/mL, 2 h, mean ± s.d., n = 3
[8] = target: B7; assay: ELISA; Sin3A PAH1 and PAH2 with mouse REST (residues 31-120); who was coated is not told for this experiment; conditions: both partners purified
[9] = target: T1, mouse Sin3A PAH2 (residues 295-385) (mouse, UniProt Q60520 295-385); assay: ELISA; competition: PAH1 or PAH2 (1 ug/mL) coated wells pre-incubated 2 h with various concentrations of SAP25 or Mad1 peptide, then GST-REST (2 ug/mL) for 2 h; detected with anti-GST antibody and HRP conjugated secondary antibody; conditions: both partners purified
T1 construct: Sin3A, mouse, paired amphipathic helix 2 (PAH2) domain, residues 295-385
T1 sequence (looked up): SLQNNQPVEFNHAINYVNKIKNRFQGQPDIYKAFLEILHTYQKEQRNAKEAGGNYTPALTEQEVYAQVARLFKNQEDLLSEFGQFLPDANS

[10] = target: B1; assay: as above; conditions: both partners purified
[11] = target: B1; assay: fluorescence polarisation; FITC-labeled Mad1 and SAP25 peptides incubated separately with various concentrations of PAH1 and PAH2; conditions: both partners purified
[12] = target: T1, mouse Sin3A PAH2 (residues 295-385); assay: as above; conditions: both partners purified
[13] = target: T1, mouse Sin3A PAH2 (residues 295-385); assay: ELISA; Sin3A PAH1 and PAH2 with mouse REST (residues 31-120); who was coated is not told for this experiment; conditions: both partners purified

Molecule: CC(NC(=O)C(OC(=O)C(C)NC(=O)OC(C)(C)C)C(C)C)C(=O)OC(C(=O)O)C(C)C (stereo not shown) [NSC668036]
- binding to PDZ domain and inhibition of Dvl-Frizzled interaction (in words) [1]: binds to the PDZ domain of Dishevelled (Dvl/Dsh) protein, a key component of Wnt signaling, and inhibits its interaction with Frizzled (Fzd)
- transcriptional level of NeuroD1 (in words) ([2]; 30 μM NSC668036, 10 days): greatly reduced
- neurogenesis inducing capability of Sin3A-silenced cells (in words) ([2]; 30 μM NSC668036, 10 days): attenuated
- translational level of β-catenin (in words) ([2]; 30 μM NSC668036, 10 days): markedly decreased

Molecule: CC1=C(/C=C/C(C)=C/C=C/C(C)=C/C(=O)O)C(C)(C)CCC1 [RA, retinoic acid]
- neurogenesis and astrogenesis of RA-treated P19 cells (in words) [3]: underwent neurogenesis and astrogenesis

Molecule: Cn1ncnc2c(=O)n(C)c(=O)nc1-2 [PKF118-310]
- transcriptional level of NeuroD1 (in words) ([2]; 25 nM PKF118-310, 10 days): greatly reduced
- neurogenesis inducing capability of Sin3A-silenced cells (in words) ([2]; 25 nM PKF118-310, 10 days): attenuated
- translational level of β-catenin (in words) ([2]; 25 nM PKF118-310, 10 days): markedly decreased
- inhibition of Tcf4/β-catenin complex formation (in words) [4]: blocks the formation of the complex between Tcf4 and β-catenin

Molecule: COc1cccc(CN(C(=O)CC(C)(C)C)[C@H]2C[C@@H](C(=O)N3CCNCC3)N(Cc3ccc4c(c3)OCO4)C2)c1 [Cur61414]
- inhibition of smoothened (in words) [5]: a known inhibitor of smoothened (SMO)
- neurogenesis-inducing ability of Sin3A-knockdown cells (in words) [6]: greatly reduced

Molecule: B1
- binding to REST (in words) [7]: bind with near equal strengths to REST
- binding result [8]: binds

B2: Mad1 peptide (sequence 6-21 of the Mad1 protein) (peptide)
peptide: RMNIQMLLEAADYLER
notes: Mad1 protein, residues 6-21; source: synthetic peptide (solid support, Fmoc/t-Bu strategy)
- binding result [9]: binds

B3: PAH2: mouse Sin3A PAH2 (residues 295–385) (protein)
chain: SLQNNQPVEFNHAINYVNKIKNRFQGQPDIYKAFLEILHTYQKEQRNAKEAGGNYTPALTEQEVYAQVARLFKNQEDLLSEFGQFLPDANS
- binding to REST (in words) [7]: bind with near equal strengths to REST

B4: SAP25 peptide (sequence 171-186 of the SAP25 protein) (peptide)
peptide: AEMIALAGLLQMSQGE
notes: SAP25 protein, residues 171-186; source: synthetic peptide (solid support, Fmoc/t-Bu strategy)
- binding result [10]: binds

B5: FITC-labeled SAP25 peptide (sequence 171-186 of the SAP25 protein) (peptide)
peptide: AEMIALAGLLQMSQGE
modifications: also: FITC label, position not given here
notes: SAP25 protein, residues 171-186; where the FITC is attached may be told there; source: synthetic peptide (solid support, Fmoc/t-Bu strategy)
- binding result [11]: binds

B6: FITC-labeled Mad1 peptide (sequence 6-21 of the Mad1 protein) (peptide)
peptide: RMNIQMLLEAADYLER
modifications: also: FITC label, position not given here
notes: Mad1 protein, residues 6-21; where the FITC is attached may be told there; source: synthetic peptide (solid support, Fmoc/t-Bu strategy)
- binding result [12]: binds

Molecule: B7
- binding result [13]: binds
